Data as given in the supplement of paper PMC10307832.

Legend:
Assay in all cases: relative viability (nuclei count vs DMSO), 5 days (fraction); higher = more cells survive
HCC-366 = tested on: HCC-366
Method in brief: (§1)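 Medians of duplicate plates are given as relative viability. That measure is the nuclei count in treated wells divided by the count in vehicle wells. Counts were taken on 4× images of lung cancer cell lines in 1536-well plates, 5 days after pin-tool dosing the day after seeding with one drug alone or a fixed anchor-drug dose plus five library-drug doses (not always all listed) in √10 steps.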

NCI-H1993 = tested on: NCI-H1993
Method in brief: as §1

ChaGo-K-1 = tested on: ChaGo-K-1
Method in brief: as §1

EMC-BAC-2 = tested on: EMC-BAC-2
Method in brief: as §1

NCI-H2126 = tested on: NCI-H2126
Method in brief: as §1

NCI-H2228 = tested on: NCI-H2228
Method in brief: as §1

LC-2-ad = tested on: LC-2-ad
Method in brief: as §1

A-427 = tested on: A-427
Method in brief: as §1

NCI-H1944 = tested on: NCI-H1944
Method in brief: as §1

NCI-H838 = tested on: NCI-H838
Method in brief: as §1

UMC-11 = tested on: UMC-11
Method in brief: as §1

COR-L23 = tested on: COR-L23
Method in brief: as §1

NCI-H23 = tested on: NCI-H23
Method in brief: as §1

NCI-H2009 = tested on: NCI-H2009
Method in brief: as §1

NCI-H2405 = tested on: NCI-H2405
Method in brief: as §1

ABC-1 = tested on: ABC-1
Method in brief: as §1

HARA = tested on: HARA
Method in brief: as §1

NCI-H1734 = tested on: NCI-H1734
Method in brief: as §1

NCI-H1793 = tested on: NCI-H1793
Method in brief: as §1

SK-LU-1 = tested on: SK-LU-1
Method in brief: as §1

HCC-15 = tested on: HCC-15
Method in brief: as §1

HCC-78 = tested on: HCC-78
Method in brief: as §1

NCI-H2023 = tested on: NCI-H2023
Method in brief: as §1

Compound `O=C(O)c1ccc(-c2c[nH]c3ncc(-c4ccccc4)cc23)cc1C1CCCC1` + Cc1cc(Nc2cc(N3CCN(C)CC3)nc(Sc3ccc(NC(=O)C4CC4)cc3)n2)n[nH]1 [Tozasertib] (partner 0.1 µM) has a relative viability (HCC-366; first compound 0.04 µM) of 0.128, a relative viability (HCC-366; first compound 0.1265 µM) of 0.163 and a relative viability (HCC-366; first compound 0.4 µM) of 0.0869. For the same compound, the relative viability (HCC-366; first compound 1.265 µM) was 0.0888, the relative viability (NCI-H1993; first compound 0.04 µM) was 0.556 and the relative viability (NCI-H1993; first compound 0.1265 µM) was 0.604. The relative viability (NCI-H1993; first compound 0.4 µM) was 0.55, the relative viability (NCI-H1993; first compound 1.265 µM) was 0.606 and the relative viability (ChaGo-K-1; first compound 0.04 µM) was 0.213. The relative viability (ChaGo-K-1; first compound 0.1265 µM) was 0.225, the relative viability (ChaGo-K-1; first compound 0.4 µM) was 0.242 and the relative viability (ChaGo-K-1; first compound 1.265 µM) was 0.215. The relative viability (EMC-BAC-2; first compound 0.04 µM) was 0.29, the relative viability (EMC-BAC-2; first compound 0.1265 µM) was 0.283 and the relative viability (EMC-BAC-2; first compound 0.4 µM) was 0.272. For the same compound, the relative viability (EMC-BAC-2; first compound 1.265 µM) was 0.272, the relative viability (NCI-H2126; first compound 0.04 µM) was 0.84 and the relative viability (NCI-H2126; first compound 0.1265 µM) was 0.833. For the same compound, the relative viability (NCI-H2126; first compound 0.4 µM) was 0.868, the relative viability (NCI-H2126; first compound 1.265 µM) was 0.644 and the relative viability (NCI-H2228; first compound 0.04 µM) was 0.244. It also gave a relative viability (NCI-H2228; first compound 0.1265 µM) of 0.272, a relative viability (NCI-H2228; first compound 0.4 µM) of 0.218 and a relative viability (NCI-H2228; first compound 1.265 µM) of 0.186. It also gave a relative viability (LC-2-ad; first compound 0.04 µM) of 0.482, a relative viability (LC-2-ad; first compound 0.1265 µM) of 0.407 and a relative viability (LC-2-ad; first compound 0.4 µM) of 0.399. The relative viability (LC-2-ad; first compound 1.265 µM) was 0.402, the relative viability (A-427; first compound 0.04 µM) was 0.23 and the relative viability (A-427; first compound 0.1265 µM) was 0.255. The relative viability (A-427; first compound 0.4 µM) was 0.182, the relative viability (A-427; first compound 1.265 µM) was 0.182 and the relative viability (NCI-H1944; first compound 0.04 µM) was 0.231. The relative viability (NCI-H1944; first compound 0.1265 µM) was 0.259, the relative viability (NCI-H1944; first compound 0.4 µM) was 0.233 and the relative viability (NCI-H1944; first compound 1.265 µM) was 0.249. It also gave a relative viability (NCI-H838; first compound 0.04 µM) of 0.291, a relative viability (NCI-H838; first compound 0.1265 µM) of 0.274 and a relative viability (NCI-H838; first compound 0.4 µM) of 0.232. The relative viability (NCI-H838; first compound 1.265 µM) was 0.229, the relative viability (UMC-11; first compound 0.04 µM) was 0.189 and the relative viability (UMC-11; first compound 0.1265 µM) was 0.197. For the same compound, the relative viability (UMC-11; first compound 0.4 µM) was 0.199, the relative viability (UMC-11; first compound 1.265 µM) was 0.191 and the relative viability (COR-L23; first compound 0.04 µM) was 0.208. The relative viability (COR-L23; first compound 0.1265 µM) was 0.177, the relative viability (COR-L23; first compound 0.4 µM) was 0.166 and the relative viability (COR-L23; first compound 1.265 µM) was 0.119. The relative viability (NCI-H23; first compound 0.04 µM) was 0.355, the relative viability (NCI-H23; first compound 0.1265 µM) was 0.369 and the relative viability (NCI-H23; first compound 0.4 µM) was 0.364. It also gave a relative viability (NCI-H23; first compound 1.265 µM) of 0.353, a relative viability (NCI-H2009; first compound 0.04 µM) of 0.734 and a relative viability (NCI-H2009; first compound 0.1265 µM) of 0.776. For the same compound, the relative viability (NCI-H2009; first compound 0.4 µM) was 0.681, the relative viability (NCI-H2009; first compound 1.265 µM) was 0.564 and the relative viability (NCI-H2405; first compound 0.04 µM) was 0.725. It also gave a relative viability (NCI-H2405; first compound 0.1265 µM) of 0.806, a relative viability (NCI-H2405; first compound 0.4 µM) of 0.648 and a relative viability (NCI-H2405; first compound 1.265 µM) of 0.583. It also gave a relative viability (ABC-1; first compound 0.04 µM) of 0.2, a relative viability (ABC-1; first compound 0.1265 µM) of 0.192 and a relative viability (ABC-1; first compound 0.4 µM) of 0.147. It also gave a relative viability (ABC-1; first compound 1.265 µM) of 0.18, a relative viability (HARA; first compound 0.04 µM) of 0.104 and a relative viability (HARA; first compound 0.1265 µM) of 0.0989. For the same compound, the relative viability (HARA; first compound 0.4 µM) was 0.197, the relative viability (HARA; first compound 1.265 µM) was 0.0904 and the relative viability (NCI-H1734; first compound 0.04 µM) was 0.284. The relative viability (NCI-H1734; first compound 0.1265 µM) was 0.236, the relative viability (NCI-H1734; first compound 0.4 µM) was 0.247 and the relative viability (NCI-H1734; first compound 1.265 µM) was 0.258. For the same compound, the relative viability (NCI-H1793; first compound 0.04 µM) was 0.345, the relative viability (NCI-H1793; first compound 0.1265 µM) was 0.323 and the relative viability (NCI-H1793; first compound 0.4 µM) was 0.513. It also gave a relative viability (NCI-H1793; first compound 1.265 µM) of 0.266, a relative viability (SK-LU-1; first compound 0.04 µM) of 0.296 and a relative viability (SK-LU-1; first compound 0.1265 µM) of 0.347. It also gave a relative viability (SK-LU-1; first compound 0.4 µM) of 0.298, a relative viability (SK-LU-1; first compound 1.265 µM) of 0.292 and a relative viability (HCC-15; first compound 0.04 µM) of 0.403. The relative viability (HCC-15; first compound 0.1265 µM) was 0.502, the relative viability (HCC-15; first compound 0.4 µM) was 0.307 and the relative viability (HCC-15; first compound 1.265 µM) was 0.151. For the same compound, the relative viability (HCC-78; first compound 0.1265 µM) was 0.468, the relative viability (HCC-78; first compound 0.4 µM) was 0.405 and the relative viability (HCC-78; first compound 1.265 µM) was 0.345. It also gave a relative viability (NCI-H2023; first compound 0.04 µM) of 0.374, a relative viability (NCI-H2023; first compound 0.1265 µM) of 0.39 and a relative viability (NCI-H2023; first compound 0.4 µM) of 0.318. It also gave a relative viability (NCI-H2023; first compound 1.265 µM) of 0.242.
